Results on 6 molecules are retold here after US5472684A, “Oral compositions for plaque and gingivitis” (Colgate Palmolive Company, priority 1993, dated 1995).

The structures appear in SMILES notation. Where two headings read alike, the source gives them in different places.

Assay [1] concerns Plaque. Kind of assay: 4-day plaque regrowth in a clinical study in humans, plaque score. The assay is classed as in vivo. The method, then:
(§1) The efficacy of natural product rinse on the reduction of plaque was evaluated in a clinical study in humans. The study was randomized, blind, 3 cells cross-over design to measure the effects of each rinse on 4 day plaque growth from a zero baseline. […] On the other hand, 0.2% chlorhexidine rinse, clinically proven for plaque and gingivitis effect, inhibited 48.0% and 78.0% regrowth of plaque measured by score and area, respectively under similar conditions.

Assay [2] concerns Plaque. The assay can be described thus: 4-day plaque regrowth in a clinical study in humans, plaque area. The assay is classed as in vivo. How it is done:
as §1

The next assay has as its system Actinomyces viscosus. Kind of assay: MIC of natural flavoring agents vs. A. viscosus, standard serial dilution method. In kind it is cell-based. Conditions: for MIC: Actinomyces viscosus, read-out: Antibacterial Activity vs. A. viscosus MIC; for antibacterial activity against A. viscosus (in words): from MIC data of Table 1. How it is done:
The antibacterial activities of a number of natural flavoring agents were evaluated against Actinomyces viscosus, a dental plaque bacterium, by measuring the minimum inhibitory concentration (hereinafter referred to as MIC) of the respective agents in vitro according to the standard serial dilution method delineated in N. Nabi et al., Am. J. Dent. 2: 197:206, 1989 which is incorporated herein by reference. The MIC is defined for the purpose of this invention to mean the concentration of a particular agent at which no bacterial growth was observed. The natural flavoring agents used were obtained from commercial sources available in organic or aqueous solvents. The antibacterial compound, Triclosan, was used as a positive Control. Triclosan is 2,4,4'-trichloro-2'-hydroxydiphenyl ether.

A further assay deals with plaque and gingivitis. Conditions: toothpaste and mouthrinse containing Triclosan, humans; cited from earlier work.
Assay [3] has as its system bacterial plaque formation. The assay can be described thus: Chemostat Plaque Model in vitro (flow cell system, artificial mouth). In kind it is cell-based. The conditions noted are these: about 0.5 wt % eucalyptol or about 0.01 wt. % sage oil added to rinse (2). How it is done:
The effect of natural product rinse (2) to inhibit bacterial plaque formation in vitro was assessed using the Chemostat Plaque Model according to methods of A. Gaffar et al. described in Am. J. Dent., 3, p. S7-S14, 1990. This in vitro model simulates the actual saliva and tooth surface interactions with respect to the plaque formation in the mouth and assesses the interactions, at biophysical and surface chemical level, of saliva-coated bacteria to saliva-coated surfaces with a surface energy similar to dental enamel.

Where [4] appears, read: 4-day plaque regrowth, rinsed twice daily, fifteen volunteers.
[5] abbreviates: after 4 days, compared with 0.9% saline rinse, p < 0.001.
The mark [6] stands for this setting: in vitro, serial dilution, concentration at which no bacterial growth was observed.

Take `[H]/N=C(\N/C(=N/[H])NCCCCCCNC(=N)NC(=N)Nc1ccc(Cl)cc1)Nc1ccc(Cl)cc1` [Chlorhexidine]: the “Plaque Score” value in the assay on Plaque [1] (setting [4]) is on record as 0.128 +/- 0.068. Also, the “Plaque Reduction % (plaque score)” value with Plaque [1] (setting [5]) came to 48.0%. Besides, the “Plaque Area” value in the assay on Plaque [2] (setting [4]) is on record as 0.069 +/- 0.055. The “Plaque Reduction % (plaque area)” value with Plaque [2] (setting [5]) is 78.0%.
Regarding `C=CCc1ccc(O)c(OC)c1` [Eugenol], the MIC in the assay with Actinomyces viscosus (setting [6]) worked out at 25 µg/mL. Moreover, the “antibacterial activity against A. viscosus (in words)” value (shortened to “antibacterial activity”) in the assay on Actinomyces viscosus was “most active”.
For `CC(C)=CCCC(C)=CCCC(C)=CCO` [Farnesol], in the assay with Actinomyces viscosus (setting [6]), the MIC worked out at 25 µg/mL. The “antibacterial activity” value with Actinomyces viscosus was “excellent antibacterial activity equivalent to thymol or eugenol”; in the assay with Actinomyces viscosus (listed as farnesol), “most active”.
For `Cc1ccc(C(C)C)c(O)c1` [Thymol], the minimum inhibitory concentration (MIC) in the assay with Actinomyces viscosus (setting [6]) amounted to 25 µg/mL. In the assay with Actinomyces viscosus, the “antibacterial activity” value is recorded as “most active”.
As to `Oc1cc(Cl)ccc1Oc1ccc(Cl)cc1Cl` [Triclosan, 2,4,4'-trichloro-2'-hydroxydiphenyl ether, reference compound], the MIC in the assay with Actinomyces viscosus turned out to be 5 µg/mL. In addition, in the assay with plaque and gingivitis, the “effect on plaque and gingivitis (in words)” value was “reduce plaque and gingivitis”.
Regarding `CC12CCC(CC1)C(C)(C)O2` [eucalyptol], the “antiplaque activity on addition to natural product rinse (2) (in words)” value in assay [3] is given as “increases the antiplaque activity”.
